In article PMC6357004 (Viruses, 2018):

Legend:
[1] = target: neuraminidase (NA) of recombinant influenza B/Phuket/3073/2013 H136N virus (Influenza B virus, UniProt A0A1S5RAG6, H134N); type: biochemical, influenza B/Phuket/3073/2013 virus
[2] = target: neuraminidase (NA) of recombinant influenza B/Phuket/3073/2013 R152K virus (Influenza B virus, UniProt A0A1S5RAG6, R150K); type: biochemical, influenza B/Phuket/3073/2013 virus
[3] = target: neuraminidase (NA) of recombinant influenza B/Phuket/3073/2013 D198E virus (Influenza B virus, UniProt A0A1S5RAG6, D197E); type: biochemical, influenza B/Phuket/3073/2013 virus
[4] = target: neuraminidase (NA) of recombinant influenza B/Phuket/3073/2013 D198N virus (Influenza B virus, UniProt A0A1S5RAG6, D197N); type: biochemical, influenza B/Phuket/3073/2013 virus
[5] = target: neuraminidase (NA) of recombinant influenza B/Phuket/3073/2013 I222T virus (Influenza B virus, UniProt A0A1S5RAG6, I221T); type: biochemical, influenza B/Phuket/3073/2013 virus
[6] = target: neuraminidase (NA) of recombinant influenza B/Phuket/3073/2013 N294S virus (Influenza B virus, UniProt A0A1S5RAG6, N294S); type: biochemical, influenza B/Phuket/3073/2013 virus
[7] = tested on: B/Wyoming/07/2017 (B/Yamagata lineage) D198N variant; conditions: cited from earlier work
[8] = read-out: Neuraminidase Inhibitors IC50 values

CCC(CC)[C@H](NC(C)=O)[C@@H]1[C@H](O)[C@@H](C(=O)O)C[C@H]1N=C(N)N [Peramivir, peramivir]
Folds (fold changes according to WT virus) [1]: 240 fold
IC50 [1, 8]: 177 nM
Folds (fold changes according to WT virus) [2]: 572 fold
IC50 [2, 8]: 423 nM
Folds (fold changes according to WT virus) [3]: 21 fold
IC50 [3, 8]: 15.5 nM
Folds (fold changes according to WT virus) [4]: 9 fold
IC50 [4, 8]: 6.92 nM
Folds (fold changes according to WT virus) [5]: 26 fold
IC50 [5, 8]: 19.5 nM
Folds (fold changes according to WT virus) [6]: 46 fold
IC50 [6, 8]: 33.7 nM

CC(=O)N[C@H]1[C@H]([C@H](O)[C@H](O)CO)OC(C(=O)O)=C[C@@H]1N=C(N)N [Zanamivir, zanamivir]
susceptibility phenotype [7]: susceptible
